The record followed here is the supplement of paper PMC10307832.

Common to all, as to experiment: relative viability (nuclei count vs DMSO), 5 days (fraction); higher = more cells survive
Compound in test [1]: O=C(O)C(Cc1ccccc1[N+](=O)[O-])=NNc1nc(-c2ccc(Cl)c(Cl)c2)cs1 (mixture of isomers) [4EGI-1] + Cc1cc(Nc2cc(N3CCN(C)CC3)nc(Sc3ccc(NC(=O)C4CC4)cc3)n2)n[nH]1 [Tozasertib] (partner 0.1 µM)
The method in brief: (§1)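 Relative viability divides the nuclei count in treated wells by that in vehicle wells. Lung cancer cell lines were seeded in 1536-well plates, dosed by pin tool the next day, and fixed and stained after 5 days in one step with final 0.05% Triton X-100, 1% formaldehyde and 1 ug/ml Hoechst. Dosing was a single drug or a fixed anchor-drug dose plus five library-drug doses (not always all listed) in √10 steps, and values are medians of duplicate plates imaged at 4×.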

Compound in test [2]: O=C(O)C(Cc1ccccc1[N+](=O)[O-])=NNc1nc(-c2ccc(Cl)c(Cl)c2)cs1 (mixture of isomers) [4EGI-1] + CC(C)C[C@H](NC(=O)[C@H](Cc1ccccc1)NC(=O)c1cnccn1)B(O)O [Bortezomib] (partner 0.002 µM)
The method in brief:
as §1

Compound in test [3]: CN1CCN(CC1)C2=CC(=C(C=C2)NC3=NC=C4C(=N3)N(C5=CC=CC=C5C(=O)N4C)C)OC [XMD8-85] + Cc1nc(Nc2ncc(C(=O)Nc3c(C)cccc3Cl)s2)cc(N2CCN(CCO)CC2)n1 [Dasatinib] (partner 0.075 µM)
The method in brief: as §1

Compound in test [4]: O=C(O)C(Cc1ccccc1[N+](=O)[O-])=NNc1nc(-c2ccc(Cl)c(Cl)c2)cs1 (mixture of isomers) [4EGI-1] + Nc1nc2[nH]cc(CCc3ccc(C(=O)N[C@@H](CCC(=O)O)C(=O)O)cc3)c2c(=O)[nH]1 [Pemetrexed] (partner 0.2 µM)
The method in brief: as §1

NCI-H441: the relative viability in test [1] (first compound 0.5 µM) came out at 0.688; in test [1] (first compound 1.581 µM), 0.538; in test [1] (first compound 5 µM), 0.574; in test [1] (first compound 15.81 µM), 0.541; in test [1] (first compound 50 µM), 0.284; in test [2] (first compound 0.5 µM), 0.634. In addition, the relative viability is 0.517 in test [2] (first compound 1.581 µM); 0.659 in test [2] (first compound 5 µM); 0.492 in test [2] (first compound 15.81 µM); 0.441 in test [2] (first compound 50 µM); 0.42 in test [3] (first compound 0.08 µM); 0.576 in test [3] (first compound 0.253 µM). The relative viability was 0.728 in test [3] (first compound 0.8 µM); 0.715 in test [3] (first compound 2.53 µM); 0.516 in test [3] (first compound 8 µM); 0.257 in test [4] (first compound 0.5 µM); 0.249 in test [4] (first compound 1.581 µM); 0.276 in test [4] (first compound 5 µM). The results for the relative viability in test [4] (first compound 15.81 µM) and in test [4] (first compound 50 µM) were 0.229 and 0.184, respectively.

On to PC-3 [JPC-3], for which the relative viability in test [1] (first compound 0.5 µM) was 0.881; in test [1] (first compound 1.581 µM) it was 0.863; in test [1] (first compound 5 µM), 0.825; in test [1] (first compound 50 µM), 0.711; in test [2] (first compound 0.5 µM) it was 0.787; in test [2] (first compound 1.581 µM) it was 0.81. Besides, the relative viability in test [2] (first compound 5 µM) came out at 0.812; in test [2] (first compound 50 µM), 0.645; in test [3] (first compound 0.08 µM) it was 0.889; in test [3] (first compound 0.253 µM), 0.932; in test [3] (first compound 0.8 µM), 0.939; in test [3] (first compound 2.53 µM), 1.14. The relative viability in test [3] (first compound 8 µM) is 0.997; in test [4] (first compound 0.5 µM), 1.09; in test [4] (first compound 5 µM) it was 1.21; in test [4] (first compound 15.81 µM), 0.491; in test [4] (first compound 50 µM) it was 0.333.

In the case of NCI-H1915, the relative viability in test [1] (first compound 0.5 µM) was 0.448; in test [1] (first compound 1.581 µM), 0.327; in test [1] (first compound 5 µM) it was 0.421; in test [1] (first compound 15.81 µM) it was 0.326; in test [1] (first compound 50 µM), 0.201; in test [2] (first compound 0.5 µM), 1. Further, the relative viability in test [2] (first compound 1.581 µM) stood at 0.693; in test [2] (first compound 5 µM), 1.09; in test [2] (first compound 15.81 µM), 1.01; in test [2] (first compound 50 µM) it was 0.687; in test [3] (first compound 0.08 µM), 0.328; in test [3] (first compound 0.253 µM), 0.339. Also, the relative viability in test [3] (first compound 0.8 µM) was found to be 0.348; in test [3] (first compound 2.53 µM), 0.326; in test [3] (first compound 8 µM), 0.32; in test [4] (first compound 0.5 µM), 0.513; in test [4] (first compound 1.581 µM) it was 0.407; in test [4] (first compound 5 µM), 0.451. In addition, the relative viability in test [4] (first compound 15.81 µM) was 0.488; in test [4] (first compound 50 µM) it was 0.263.

Regarding NCI-H2228, the relative viability in test [1] (first compound 0.5 µM) came to 0.276; in test [1] (first compound 1.581 µM), 0.273; in test [1] (first compound 5 µM) it was 0.248; in test [1] (first compound 15.81 µM), 0.285; in test [1] (first compound 50 µM), 0.134; in test [2] (first compound 0.5 µM), 1.25. In addition, the relative viability was determined as 0.952 in test [2] (first compound 1.581 µM); 1.05 in test [2] (first compound 5 µM); 0.599 in test [2] (first compound 15.81 µM); 0.252 in test [2] (first compound 50 µM); 0.451 in test [3] (first compound 0.08 µM); 0.514 in test [3] (first compound 0.253 µM). Moreover, the relative viability was determined as 0.516 in test [3] (first compound 0.8 µM); 0.398 in test [3] (first compound 2.53 µM); 0.231 in test [3] (first compound 8 µM); 0.377 in test [4] (first compound 0.5 µM); 0.472 in test [4] (first compound 1.581 µM); 0.367 in test [4] (first compound 5 µM). Further, the results for the relative viability in test [4] (first compound 15.81 µM) and in test [4] (first compound 50 µM) were 0.338 and 0.164, respectively.
